# According to US20260217687A1 (NeoPhore Limited, priority 2023, published 2026):
# Assays:
# Assay type in all cases: binding
# [1] = biological target: T1, recombinant N-terminal MLH1 (residues 15-340) (Homo sapiens, UniProt P40692); experiment: Fluorescence Polarisation Assay for MLH1; settings: 100 nM N-terminal MLH1, 5 nM probe compound
# T1 construct: recombinant N-terminal MLH1 (residues 15-340)
# T1 sequence (P40692 15-340): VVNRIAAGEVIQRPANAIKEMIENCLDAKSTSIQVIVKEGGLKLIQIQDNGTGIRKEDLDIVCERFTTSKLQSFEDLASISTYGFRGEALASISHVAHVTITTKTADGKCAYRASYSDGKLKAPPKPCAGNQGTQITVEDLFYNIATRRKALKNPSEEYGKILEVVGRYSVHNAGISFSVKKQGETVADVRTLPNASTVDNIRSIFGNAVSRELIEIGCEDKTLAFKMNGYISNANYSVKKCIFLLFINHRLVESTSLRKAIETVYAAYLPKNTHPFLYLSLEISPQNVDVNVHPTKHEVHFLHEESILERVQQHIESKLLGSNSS
# Summary of the method: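 Fluorescence polarisation displacement: 100 nM MLH1 (15-340) preincubated 30 min at room temperature with compound, then 5 nM rhodamine-labelled probe added and read immediately. Buffer 25 mM HEPES pH 7.5, 250 mM NaCl, 10 mM MgCl2, 0.01% Triton X-100, 5 mM DTT; normalised to no-inhibitor and no-enzyme controls.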
# [2] = biological target: T2, recombinant N-terminal PMS2 (residues 1-365) (Homo sapiens, UniProt P54278); experiment: Fluorescence Polarisation Assay for PMS2; settings: 10 nM N-terminal PMS2, 5 nM probe compound
# T2 construct: recombinant N-terminal PMS2 (residues 1-365)
# T2 sequence (P54278 1-365): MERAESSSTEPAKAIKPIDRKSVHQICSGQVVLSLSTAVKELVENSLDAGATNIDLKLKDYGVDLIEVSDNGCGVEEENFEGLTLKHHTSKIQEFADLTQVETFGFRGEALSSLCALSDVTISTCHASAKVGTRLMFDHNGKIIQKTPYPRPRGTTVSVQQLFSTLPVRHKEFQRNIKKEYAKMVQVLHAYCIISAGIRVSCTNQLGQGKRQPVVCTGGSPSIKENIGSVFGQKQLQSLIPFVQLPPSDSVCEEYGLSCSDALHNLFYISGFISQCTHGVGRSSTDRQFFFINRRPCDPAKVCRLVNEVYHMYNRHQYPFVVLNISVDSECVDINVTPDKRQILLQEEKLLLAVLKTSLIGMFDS
# Method: Fluorescence Polarisation Assay for PMS2
# Test compounds, as 10 mM DMSO stocks, were dispensed into a Black Fluotrac 200 384 well medium binding plate (Greiner Bio-One, item number 781076) using a Labcyte Echo acoustic liquid handler. For single point screening, test compounds were added to wells in columns 1-22 whilst DMSO was added to wells in columns 23 and 24 to normalise the plate. For potency determination, serial dilutions of test compounds were added to wells in columns 3-22 and DMSO volume was normalised across the plate. […] 20 μL assay buffer was added to all wells in columns 1 and 24 (column 24 only for single point screening) using a MultiDrop Combi (ThermoFisher). Plates were centrifuged for 1 minute at 250 xg and were incubated at room temperature for 30 minutes prior to the addition of 20 μL of 2×(20 nM) of 5-((5-(4-((2-(2,4-dihydroxy-5-isopropylbenzoyl) isoindolin-5-yl) methyl)piperazin-1-yl) pentyl)carbamoyl)-2-(6-(dimethylamino)-3-(dimethyliminio)-3H-xanthen-9-yl)benzoate (referred to hereinafter as “probe compound”) in assay buffer (prepared from a 100 μM DMSO stock) with a MultiDrop Combi (ThermoFisher). The final concentration of N-terminal PMS2 was 10 nM and the final concentration of probe compound was 5 nM. Compound plates were centrifuged for 1 minute at 250 xg for 1 minute and were incubated at room temperature for 1 hour before being read on a PheraStar FSX (fitted with 384-well aperture spoon and 540 590 590 FP optic module). The gain and focus were adjusted before each plate was read so that the polarisation of a no enzyme control (column 24) was equal to 35 mP. Data were normalised against the no inhibitor controls (column 23) and no enzyme controls (column 24).
# [3] = biological target: T3, recombinant HSP90α (full length with an N-terminal His6-tag) (Homo sapiens, UniProt P07900); experiment: Fluorescence Polarisation Assay for HSP90; settings: 30 nM HSP90α, 5 nM FITC-Geldanymycin
# T3 construct: recombinant HSP90α (full length with an N-terminal His6-tag, BPS Bioscience); His6 (N); purchased BPS Bioscience
# Method: Fluorescence Polarisation Assay for HSP90
# Test compounds, solubilised to a concentration of 10 mM in DMSO, were dispensed into a Black Fluotrac 200 384 well medium binding plates (Greiner Bio-One, item number 781076) using a Labcyte Echo acoustic liquid handler. For single point screening, test compounds were added to wells in columns 1-22 whilst for potency determination, serial dilutions of test compounds were added to wells in columns 3-22; in all cases, DMSO volume was normalised across the entire plate. All subsequent liquid handling steps were conducted using a Multidrop Combi (Thermo Scientific) or Matrix electronic pipettors (Thermo Scientific).
# 20 μL assay buffer was added to all wells in columns 1 and 24 (column 24 only for single point screening). Plates were centrifuged for 1 minute at 250 xg and were incubated at room temperature for 30 minutes prior to the addition of 20 μL of 2×(10 nM) of FITC-Geldanymycin in assay buffer (Abcam ab141589, prepared from a 100 μM DMSO stock). […]
# Compound plates were centrifuged for 1 minute at 250 xg and were incubated at room temperature for 3 hours before being read on a PheraStar FSX (fitted with 384-well aperture spoon and 485 520 520 FP optic module). The gain and focus were adjusted before each plate was read so that the polarisation of a no enzyme control (column 24) was equal to 35 mP. […]
SMILES,IC50 [1] [nM],IC50 [2] [nM],IC50 [3] [nM]
"CN1CCC(Oc2ccc3c(c2)CN(C(=O)c2c(O)cc(C(F)F)cc2OCc2ccccc2)C3)CC1 [Example 4.32, (2-(Benzyloxy)-4-(difluoromethyl)-6-hydroxyphenyl)(5-((1-methylpiperidin-4-yl)oxy)isoindolin-2-yl)methanone]",< 100,1000 to 10000,1000 to 10000
"CN(C)CCOc1ccc2c(c1)CCN(C(=O)c1c(O)cc(C(F)F)cc1OCc1ccccc1)C2 [Example 4.41, (2-(Benzyloxy)-4-s(difluoromethyl)-6-hydroxyphenyl)(6-(2-(dimethylamino)ethoxy)-3,4-dihydroisoquinolin-2(1H)-yl)methanone]",100 to 1000,100 to 1000,
"CN1CC[C@H](Oc2ccc3c(c2)CN(C(=O)c2c(O)cc(C(F)F)cc2OCc2ccccc2)C3)C1 [Example 4.56, (S)-(2-(Benzyloxy)-4-(difluoromethyl)-6-hydroxyphenyl)(5-((1-methylpyrrolidin-3-yl)oxy)isoindolin-2-yl)methanone]",< 100,1000 to 10000,
"CN1CCC(Oc2ccc3c(c2)CN(C(=O)c2c(O)cc(C(F)F)cc2OCC2CC2)C3)CC1 [Example 4.59, (2-(Cyclopropylmethoxy)-4-(difluoromethyl)-6-hydroxyphenyl)(5-((1-methylpiperidin-4-yl)oxy)isoindolin-2-yl)methanone]",100 to 1000,,1000 to 10000
"CN1CCC(Oc2ccc3c(c2)CN(C(=O)c2c(O)cc(F)cc2OCc2ccccc2)C3)CC1 [Example 10.25, (2-(Benzyloxy)-4-fluoro-6-hydroxyphenyl) (5-((1-methylpiperidin-4-yl)oxy)isoindolin-2-yl) methadone]",100 to 1000,1000 to 10000,
"O=C(c1c(O)cc(C(F)F)cc1OCc1ccccc1)N1Cc2ccc(OC3CCNCC3)cc2C1 [Example 26, (2-(Benzyloxy)-4-(difluoromethyl)-6-hydroxyphenyl)(5-(piperidin-4-yloxy)isoindolin-2-yl)methanone]",< 100,1000 to 10000,
"O=C(c1c(O)cc(C(F)F)cc1OCc1ccc2ccncc2c1)N1CCc2cccc(N[C@H]3CCOC3)c2C1 [Example 28.3, (S)-(4-(Difluoromethyl)-2-hydroxy-6-(isoquinolin-7-ylmethoxy)phenyl)(8-((tetrahydrofuran-3-yl)amino)-3,4-dihydroisoquinolin-2(1H)-yl)methanone]",100 to 1000,,
"O=C(c1c(O)cc(C(F)F)cc1OCc1nc2ccccc2[nH]1)N1CCc2cccc(N[C@H]3CCOC3)c2C1 [Example 28.4, (S)-(2-((1H-Benzo[d]imidazol-2-yl)methoxy)-4-(difluoromethyl)-6-hydroxyphenyl)(8-((tetrahydrofuran-3-yl)amino)-3,4-dihydroisoquinolin-2(1H)-yl)methanone]",1000 to 10000,,
"CC(=O)N1CCC(Oc2ccc3c(c2)CN(C(=O)c2c(O)cc(C(F)F)cc2OCc2ccccc2)C3)CC1 [Example 29, 1-(4-((2-(2-(Benzyloxy)-4-(difluoromethyl)-6-hydroxybenzoyl)isoindolin-5-yl)oxy)piperidin-1-yl) ethan-1-one]",< 100,,
